Laboratory results reported in patent US9000175B2, “Bicyclic GPR119 modulators” (Lupin Limited, priority 2010, dated 2015).
Where “and” joins values, the source holds several entries; their conditions need not be identical. Identical values can stand only once.

biological target: T1, human GPR119 (Homo sapiens, UniProt Q8TDV5); test: Cyclic AMP assay in stable cell line; assay type: cell-based; conditions: CHO-K1 cells stably transfected with human GPR119; cAMP levels (FRET, cAMP femto kit); 1 h at 37° C; read-out: EC50 Range
T1 construct: expressed in transfected cells
T1 sequence (Q8TDV5 1-335): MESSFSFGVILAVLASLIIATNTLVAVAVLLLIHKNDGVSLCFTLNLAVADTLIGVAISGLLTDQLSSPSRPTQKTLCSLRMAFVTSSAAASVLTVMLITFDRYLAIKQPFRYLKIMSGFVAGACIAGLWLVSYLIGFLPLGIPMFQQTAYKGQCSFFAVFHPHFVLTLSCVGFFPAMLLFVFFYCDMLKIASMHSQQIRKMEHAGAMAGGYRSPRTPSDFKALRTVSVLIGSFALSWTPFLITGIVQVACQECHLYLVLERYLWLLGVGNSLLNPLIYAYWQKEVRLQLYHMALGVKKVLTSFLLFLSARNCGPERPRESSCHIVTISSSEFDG
Method: Cyclic AMP Assay in Stable Cell Line:
Chinese Hamster Ovary (CHO-K1) cells were stably transfected with human GPR119 and were maintained in Ham's F-12 complete medium containing 10% heat inactivated FBS (Sigma, UK). The cells were maintained under a selection pressure with 500 μg/ml G418 (GENETICIN). Stable clones were analyzed for functional cAMP response to OEA (oleoylethanolamide).
To estimate activation of GPR119 and induction of cAMP levels by GPR119 agonists, cells were serum starvation for 18-24 h, trypsinized and seeded in 96 well plates at a, density of 7500 cells/well. The cells were then treated with test compounds diluted in serum free Ham's F12 for 1 h at 37° C. The cAMP levels were measured by using the cAMP femto kit (CisBio) by following the manufacturer's instructions. Following treatment with a test compound, the cells were lysed and cAMP levels were estimated by adding D2-labelled cAMP and europium-cryptate conjugated anti-cAMP antibody. Close proximity of D2 and cryptate results in FRET and the subsequent fluorescence that is measured at 665 and 620 nm. The FRET response is calculated as the ratio of fluorescence at 665 to fluorescence at 620 nm. The unlabelled cAMP produced as a result of GPR119 activation/agonism competes with the D2-cAMP leading to a decrease in the FRET signal. Thus the FRET signal is inversely proportional to the amount of cAMP produced by the treated cells. In a separate set of wells, known concentrations of cAMP were added in order to get a standard linear curve for extrapolation of the cAMP values in the unknown/test samples. Fluorescence was measured on BMG Labtech PHERAstar machine.
The concentration of compound required to stimulate a half-maximal response (EC50) was determined using the GraphPad Prism software.
The compounds prepared were tested using the above assay procedure and the results obtained are given below.

EC50 | Compound
< 50 nM | CCc1cnc(N2CCC(Oc3ccc(-n4ccc5cc(NC(=O)OC(C)C)ccc54)nc3)CC2)nc1 [Example-132, Isopropyl(1-(5-((1-(5-ethylpyrimidin-2-yl)piperidin-4-yl)oxy)pyridin-2-yl)-1H-indol-5-yl)carbamate]
50 to 250 nM | CS(=O)(=O)c1ccc2c(ccn2-c2ccc(OC3CCN(Cc4ccc(F)cc4)CC3)cn2)c1 [Example-82, 1-(5-((1-(4-Fluorobenzyl)piperidin-4-yl)oxy)pyridin-2-yl)-5-(methylsulfonyl)-1H-indole]
< 50 nM | CCc1cnc(N2CCC(Nc3ccc(-n4ccc5cc(C(=O)N(C)C)ccc54)nc3)CC2)nc1 [Example-22, 1-(5-((1-(5-Ethylpyrimidin-2-yl)piperidin-4-yl)amino)pyridin-2-yl)-N,N-dimethyl-1H-indole-5-carboxamide]
< 50 nM | CCc1cnc(N2CCC(Oc3ccc(-n4ccc5cc(C(=O)N(C)C)ccc54)nc3)CC2)nc1 [Example-40, 1-(5-((1-(5-Ethylpyrimidin-2-yl)piperidin-4-yl)oxy)pyridin-2-yl)-N,N-dimethyl-1H-indole-5-carboxamide]
< 50 nM | CCc1cnc(N2CCC(Oc3ccc(-n4ccc5cc(S(C)(=O)=O)cc(F)c54)nc3)CC2)nc1 [Example-171, 1-(5-((1-(5-Ethylpyrimidin-2-yl)piperidin-4-yl)oxy)pyridin-2-yl)-7-fluoro-5-(methylsulfonyl)-1H-indole]
< 50 nM | CC(C)c1noc(N2CCC(Oc3ccc(-n4ccc5cc(S(C)(=O)=O)ccc54)nc3)CC2)n1 [Example-4, 3-Isopropyl-5-(4-((6-(5-(methylsulfonyl)-1H-indol-1-yl)pyridin-3-yl)oxy)piperidin-1-yl)-1,2,4-oxadiazole]
50 to 250 nM | CCc1cnc(N2CCC(COc3ccc(-n4ccc5cc(C(=O)NC)ccc54)nc3)CC2)nc1 [Example-67, 1-(5-((1-(5-Ethylpyrimidin-2-yl)piperidin-4-yl)methoxy)pyridin-2-yl)-N-methyl-1H-indole-5-carboxamide]
< 50 nM and 50 to 250 nM | CC(C)CN1CCC(Oc2ccc(-n3ccc4cc(S(C)(=O)=O)ccc43)nc2)CC1 [Example-30, 1-(5-((1-Isobutylpiperidin-4-yl)oxy)pyridin-2-yl)-5-(methylsulfonyl)-1H-indole]
< 50 nM | CCc1cnc(N2CCC(COc3ccc(-n4ccc5cc(S(C)(=O)=O)ccc54)nc3)CC2)nc1 [Example-6, 1-(5-((1-(5-Ethylpyrimidin-2-yl)piperidin-4-yl)methoxy)pyridin-2-yl)-5-(methylsulfonyl)-1H-indole]
< 50 nM | CCc1cnc(N2CCC(Oc3ccc(-n4ccc5cc(NC(=O)C(C)C)ccc54)nc3)CC2)nc1 [Example-123, N-(1-(5-((1-(5-Ethylpyrimidin-2-yl)piperidin-4-yl)oxy)pyridin-2-yl)-1H-indol-5-yl)isobutyramide]
< 50 nM | CCOC(=O)Nc1ccc2c(ccn2-c2ccc(OC3CCN(C(=O)OC(C)(C)C)CC3)cn2)c1 [Example-8, tert-Butyl-4-((6-(5-((ethoxycarbonyl)amino)-1H-indol-1-yl)pyridin-3-yl)oxy)piperidine-1-carboxylate]
< 50 nM | CCc1cnc(N2CCC(Oc3ccc(-n4ccc5cc(S(=O)(=O)CC)ccc54)nc3)CC2)nc1 [Example-11, 1-(5-((1-(5-Ethylpyrimidin-2-yl)piperidin-4-yl)oxy)pyridin-2-yl)-5-(ethylsulfonyl)-1H-indole]
< 50 nM | CC(C)(C)OC(=O)N1CCC(Oc2ccc(-n3ccc4cc(S(C)(=O)=O)ccc43)nc2)CC1 [Example-1, tert-Butyl-4-((6-(5-(methylsulfonyl)-1H-indol-1-yl)pyridin-3-yl)oxy) piperidine-1-carboxylate]
< 50 nM | CC(C)(C)OC(=O)N1CCC(Oc2ccc(-n3ccc4cc(S(C)(=O)=O)cc(F)c43)nc2)CC1 [Example-91, tert-Butyl-4-((6-(7-fluoro-5-(methylsulfonyl)-1H-indol-1-yl)pyridin-3-yl)oxy)piperidine-1-carboxylate]
< 50 nM | CC(C)C(=O)Nc1ccc2c(ccn2-c2ccc(OC3CCN(c4nc(C(C)C)no4)CC3)cn2)c1 [Example-57, N-(1-(5-((1-(3-Isopropyl-1,2,4-oxadiazol-5-yl)piperidin-4-yl)oxy)pyridin-2-yl)-1H-indol-5-yl)isobutyramide]
< 50 nM | CS(=O)(=O)c1ccc2c(ccn2-c2ccc(OC3CCN(CC4(C(F)(F)F)CC4)CC3)cn2)c1 [Example-193, 5-(Methylsulfonyl)-1-(5-((1-((1-(trifluoromethyl)cyclopropyl)methyl)-piperidin-4-yl)oxy)pyridin-2-yl)-1H-indole]
< 50 nM | CCOC(=O)Nc1ccc2c(ccn2-c2ccc(OC3CCN(c4ncc(CC)cn4)CC3)cn2)c1 [Example-9, Ethyl(1-(5-((1-(5-ethylpyrimidin-2-yl)piperidin-4-yl)oxy)pyridin-2-yl)-1H-indol-5-yl)carbamate]
50 to 250 nM | CCc1cnc(N2CCC(OCc3ccc(-n4ccc5cc(S(C)(=O)=O)ccc54)nc3)CC2)nc1 [Example-42, 1-(5-(((1-(5-Ethylpyrimidin-2-yl)piperidin-4-yl)oxy)methyl)pyridin-2-yl)-5-(methylsulfonyl)-1H-indole]
< 50 nM | CC(C)OC(=O)N1CCC(Oc2ccc(-n3ccc4cc(S(C)(=O)=O)ccc43)nc2)CC1 [Example-169, Isopropyl 4-((6-(5-(methylsulfonyl)-1H-indol-1-yl)pyridin-3-yl)oxy) piperidine-1-carboxylate]
50 to 250 nM | CC(C)(C)OC(=O)N1CC2COCC(C1)C2Oc1ccc(-n2ccc3cc(S(C)(=O)=O)ccc32)nc1 (stereo not drawn) [Example-48, (syn)-tert-Butyl-9-((6-(5-(methylsulfonyl)-1H-indol-1-yl)pyridin-3-yl)oxy)-3-oxa-7-azabicyclo[3.3.1]nonane-7-carboxylate]
< 50 nM | CCc1noc(N2CCC(Oc3ccc(-n4ccc5cc(NC(=O)OC(C)C)ccc54)nc3)CC2)n1 [Example-143, Isopropyl(1-(5-((1-(3-ethyl-1,2,4-oxadiazol-5-yl)piperidin-4-yl)oxy)pyridin-2-yl)-1H-indol-5-yl)carbamate]
50 to 250 nM | CS(=O)(=O)c1ccc2c(ccn2-c2ccc(OC3CCN(Cc4ccc(C(F)(F)F)cc4)CC3)cn2)c1 [Example-153, 5-(Methylsulfonyl)-1-(5-((1-(4-(trifluoromethyl)benzyl)piperidin-4-yl)oxy)pyridin-2-yl)-1H-indole]
< 50 nM | CC(C)(C)CN1CCC(Oc2ccc(-n3ccc4cc(S(C)(=O)=O)ccc43)nc2)CC1 [Example-35, 5-(Methylsulfonyl)-1-(5-((1-neopentylpiperidin-4-yl)oxy)pyridin-2-yl)-1H-indole]
250 to 1000 nM | CCc1cnc(N2CCC(Oc3ccc(-n4ccc5cc(C(=O)NCC(F)(F)F)ccc54)nc3)CC2)nc1 [Example-88, 1-(5-((1-(5-Ethylpyrimidin-2-yl)piperidin-4-yl)oxy)pyridin-2-yl)-N-(2,2,2-trifluoroethyl)-1H-indole-5-carboxamide]
< 50 nM | CC(C)c1noc(N2CCC(Nc3ccc(-n4ccc5cc(S(C)(=O)=O)ccc54)nc3)CC2)n1 [Example-120, N-(1-(3-Isopropyl-1,2,4-oxadiazol-5-yl)piperidin-4-yl)-6-(5-(methylsulfonyl)-1H-indol-1-yl)pyridin-3-amine]
< 50 nM | CCc1cnc(N2CCC(Oc3ccc(-n4ccc5cc(-n6cncn6)ccc54)nc3)CC2)nc1 [Example-190, 1-(5-((1-(5-Ethylpyrimidin-2-yl)piperidin-4-yl)oxy)pyridin-2-yl)-5-(1H-1,2,4-triazol-1-yl)-1H-indole]
< 50 nM | CC(C)C(=O)Nc1ccc2c(ccn2-c2ccc(OC3CCN(C(=O)OC(C)(C)C)CC3)cn2)c1 [Example-56, tert-Butyl-4-((6-(5-isobutyramido-1H-indol-1-yl)pyridin-3-yl)oxy)-piperidine-1-carboxylate]
< 50 nM | CCc1cnc(N2CCC(Oc3ccc(-n4cc(C)c5cc(S(C)(=O)=O)ccc54)nc3)CC2)nc1 [Example-168, 1-(5-((1-(5-Ethylpyrimidin-2-yl)piperidin-4-yl)oxy)pyridin-2-yl)-3-methyl-5-(methylsulfonyl)-1H-indole]
< 50 nM | CCc1cnc(N2CCC(Oc3ccc(-n4ccc5cc(NC(=O)C(C)(C)C)ccc54)nc3)CC2)nc1 [Example-118, N-(1-(5-((1-(5-Ethylpyrimidin-2-yl)piperidin-4-yl)oxy)pyridin-2-yl)-1H-indol-5-yl)pivalamide]
